From patent publication US9174973B2, “Crystalline forms of azilsartan and preparation and uses thereof” (SUNSHINE LAKE PHARMA CO., LTD., priority 2011, dated 2015)

Experiment: solubility test of crystalline forms in 0.1M HCl (Chinese Pharmacopoeia 2010)
Format: physicochemical
Conditions: 300 mg sample in 6 mL 0.1M HCl, 25° C.±2° C., 30 minutes, observed with eyes
Description: The solubility of crystalline forms A, B, C and D was measured in accordance with the solubility test described in “Chinese Pharmacopoeia 2010”, Topic and Requirement 15. A crystalline form of azilsartan was grinded into powder. The powder (300 mg) was added to 6 ml of 0.1M HCl as the solvent at 25° C.±2° C. […] The total test time was 30 minutes. The solid was deemed as dissolved when no solid was detected in the mixture by human eyes. The solubility data of crystalline forms A, B, C and D of azilsartan are as shown below.

CCOc1nc2cccc(C(=O)O)c2n1Cc1ccc(-c2ccccc2-c2noc(=O)[nH]2)cc1 [Form D]
Result (solubility): dissolved
